Consider one compound from ChEMBL document CHEMBL1137418, “Neurosteroid analogues. 11. Alternative ring system scaffolds: gamma-aminobutyric acid receptor modulation and anesthetic actions of benz[f]indenes” (J Med Chem, 2006).

The structures appear in SMILES notation. Activity calls are given as the source filed them. The rule behind the calls is not given here.

For experiment [1], the target named is T1, GABA-A receptor; alpha-1/beta-2/gamma-2 (Rattus norvegicus) (UniProt P18508+P62813+P63138). In words: Activity at rat GABA-Aalpha1 receptor plus beta-2-gamma-2L expressed in Xenopus laevis oocyte assessed as ratio of current evoked by compound alone in absence of GABA to current evoked by 2 uM GABA at 10 uM.
Experiment [2] addresses T1, GABA-A receptor; alpha-1/beta-2/gamma-2 (Rattus norvegicus). In words: Activity at rat GABA-Aalpha1 receptor plus beta-2-gamma-2L expressed in Xenopus laevis oocyte assessed as ratio of GABA-mediated current in presence to absence of compound at 0.1 uM. Type of experiment: functional.
The species entered for experiment [3] is Xenopus laevis. In words: Loss of righting reflex in Xenopus laevis tadpole at 10 uM. Type of experiment: functional, organism-based.
For experiment [4], the species on record is Xenopus laevis. In words: Loss of swimming reflex in Xenopus laevis tadpole at 10 uM. Type of experiment: functional, organism-based.
The target of experiment [5] is T1, GABA-A receptor; alpha-1/beta-2/gamma-2 (Rattus norvegicus). In words: Activity at rat GABA-Aalpha1 receptor plus beta2gamma2L expressed in Xenopus laevis oocyte assessed as ratio of GABA-mediated current in presence to absence of compound at 1 uM. It is filed as functional.
The target is the same in experiment [6]. In words: Activity at rat GABA-Aalpha1 receptor plus beta-2-gamma-2L expressed in Xenopus laevis oocyte assessed as ratio of GABA-mediated current in presence to absence of compound at 10 uM. Type of experiment: functional.

As to `C[C@]12C[C@H]3CC[C@@H](CCO)CC3C[C@@H]1CCC2=O` (single isomer, unassigned; 1c), the Ratio is -0.01 in experiment [1], 0.93 in experiment [2], 0.9 in experiment [5] and 1.02 in experiment [6]. The outcome in the experiment listed under Xenopus laevis [3] and in the experiment filed under Xenopus laevis [4] was inactive.
